Assay results as given in PMC5814754, “Quantitative, Wide-Spectrum Kinase Profiling in Live Cells for Assessing the Effect of Cellular ATP on Target Engagement” (Cell Chemical Biology, 2018).
Like-named read-outs stand apart in the source and are kept apart here.

Tests used:
TRKB = details: read-out: Crizotinib IC50 Biochemical; ref Cui et al., 2011; cited from earlier work
MET [1] = details: read-out: Crizotinib IC50 Biochemical; ref Cui et al., 2011; cited from earlier work
LCK = details: read-out: cellular potency (phospho-ELISA), ref Cui et al., 2011; cited from earlier work
MET [2] = details: read-out: Live Cell IC50 Phospho Elisa; ref Cui et al., 2011; cited from earlier work
MuSK = biological target: T1, MuSK (Homo sapiens, UniProt O15146); test: NanoBRET target engagement, MuSK-NanoLuc, HEK293 cells (live, ATP depleted, permeabilized); format: binding; details: read-out: Tracer Affinity EC50
T1 sequence (O15146 24-869): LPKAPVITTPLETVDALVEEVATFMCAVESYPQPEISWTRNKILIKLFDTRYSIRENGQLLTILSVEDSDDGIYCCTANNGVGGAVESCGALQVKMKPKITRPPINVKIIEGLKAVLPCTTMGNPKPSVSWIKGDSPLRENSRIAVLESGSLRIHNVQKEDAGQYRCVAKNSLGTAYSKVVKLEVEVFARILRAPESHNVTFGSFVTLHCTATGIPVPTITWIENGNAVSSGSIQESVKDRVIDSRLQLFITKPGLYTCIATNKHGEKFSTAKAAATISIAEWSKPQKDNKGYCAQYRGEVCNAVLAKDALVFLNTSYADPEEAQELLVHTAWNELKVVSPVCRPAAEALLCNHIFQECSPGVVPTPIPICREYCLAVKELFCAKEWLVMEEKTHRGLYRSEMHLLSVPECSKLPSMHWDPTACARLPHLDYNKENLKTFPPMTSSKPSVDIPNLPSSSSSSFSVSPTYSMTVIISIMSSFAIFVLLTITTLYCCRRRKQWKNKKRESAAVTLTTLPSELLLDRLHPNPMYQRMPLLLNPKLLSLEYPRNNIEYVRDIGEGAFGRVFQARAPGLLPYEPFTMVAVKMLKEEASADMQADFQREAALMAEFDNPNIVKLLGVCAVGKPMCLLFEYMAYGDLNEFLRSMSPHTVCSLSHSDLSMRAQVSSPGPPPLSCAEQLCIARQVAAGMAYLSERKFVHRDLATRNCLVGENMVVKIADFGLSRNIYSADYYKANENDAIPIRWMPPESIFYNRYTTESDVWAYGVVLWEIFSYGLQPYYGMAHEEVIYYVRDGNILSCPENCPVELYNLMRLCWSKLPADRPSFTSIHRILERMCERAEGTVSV

EC50 (MuSK; ATP Depleted) | EC50 (MuSK; Live) | EC50 (MuSK; Permeabilized) | Structure (SMILES) | IC50 (TRKB) | IC50 (MET [1]) | IC50 (LCK) | IC50 (MET [2])
> 1000 nM | > 1000 nM | 180 ± 20 nM | CNC(=O)c1ccccc1Nc1nc(Nc2ccc(N3CCN(C(=O)CCOCCOCCOCCOCCNC(=O)CCc4ccc5n4[B-](F)(F)[N+]4=C(c6ccc[nH]6)C=CC4=C5)CC3)cc2)ncc1Cl [Energy Transfer Probe 5, 2-((2-((4-(4-(1-amino-3,6,9,12-tetraoxapentadecan-15-oyl)piperazin-1-yl)phenyl)amino)-5-chloropyrimidin-4-yl)amino)-N-methylbenzamide-NanoBRET 590] | – | – | – | –
